From ChEMBL document CHEMBL6074646, “Carvacrol-conjugated 3-Hydroxybenzoic Acids: Design, Synthesis, cardioprotective potential against doxorubicin-induced Cardiotoxicity, and ADMET study” (Bioorg Med Chem Lett, 2024) come the findings set out here.

For series [1], the system named is H9c2. As to the kind of experiment: Cytotoxicity against rat H9C2 cells at 10 uM incubated for 48 hrs by cell counting assay. In kind it is toxicity, cell-based. As to conditions: h9c2, 48 h.
Series [2] relates to H9c2. As to the kind of experiment: Protection against doxorubicin-induced cardiotoxicity in rat H9c2 cells assessed as increase in cell viability at 10 uM preincubated for 24 hrs followed by doxorubicin stimulation and measured after 24 hrs. Particulars: time 48.0 hrs. It counts as functional, cell-based.

Activity calls are given as the source filed them. The rule behind the calls is not given here.

As for `Cc1ccc(C(C)C)cc1OCCCOC(=O)c1cccc(O)c1`, in the series on H9c2 [1], the Activity entry was “Non-toxic”.
Consider `O=C(O)c1cccc(O)c1` [3-HYDROXYBENZOIC ACID], for which, in the series on H9c2 [2], the outcome was inactive. Besides, the Activity result with H9c2 [1] was “Non-toxic”.
For `Cc1ccc(C(C)C)cc1OC(=O)COC(=O)c1cccc(O)c1`, in the series on H9c2 [1], the Activity entry was “Non-toxic”.
With `Cc1cc(CO)c(C(C)C)cc1OC(=O)CCOC(=O)c1cccc(O)c1`, in the series with H9c2 [2], the result was inactive. In the series with H9c2 [1], the Activity result was “Non-toxic”.
As to `Cc1ccc(C(C)C)cc1OCCOC(=O)c1cccc(O)c1`, the Activity result with H9c2 [1] is “Non-toxic”.
Regarding `Cc1cc(CO)c(C(C)C)cc1OCCOC(=O)c1cccc(O)c1`, in the series on H9c2 [2], the outcome was inactive. Also, the Activity entry with H9c2 [1] is “Non-toxic”.
The like results for `Cc1cc(CO)c(C(C)C)cc1OC(=O)CCCOC(=O)c1cccc(O)c1` were, in that order, “inactive” and “Non-toxic”.
Regarding `Cc1cc(CO)c(C(C)C)cc1OCCCOC(=O)c1cccc(O)c1`, the result in the series with H9c2 [2] was inactive. In the series on H9c2 [1], the Activity result is “Non-toxic”.
The like results for `Cc1ccc(C(C)C)cc1O` [CARVACROL] were, in that order, “inactive” and “Non-toxic”.
With `Cc1ccc(C(C)C)cc1OC(=O)CCOC(=O)c1cccc(O)c1`, the Activity result with H9c2 [1] is reported as “Non-toxic”.
Regarding `Cc1ccc(C(C)C)cc1OCCCCOC(=O)c1cccc(O)c1`, in the series with H9c2 [2], the outcome was Active. Further, the Activity result in the series on H9c2 [1] is “Non-toxic”.
In the case of `Cc1cc(CO)c(C(C)C)cc1OC(=O)COC(=O)c1cccc(O)c1`, in the series with H9c2 [2], the outcome was inactive. The Activity result with H9c2 [1] is reported as “Non-toxic”.
Consider `Cc1ccc(C(C)C)cc1OC(=O)CCCOC(=O)c1cccc(O)c1`, for which the Activity result with H9c2 [1] is “Non-toxic”.
With `Cc1cc(CO)c(C(C)C)cc1OCCCCOC(=O)c1cccc(O)c1`, the result in the series with H9c2 [2] was inactive. Also, in the series with H9c2 [1], the Activity entry was “Non-toxic”.
